In patent US8569339B2, “Soluble guanylate cyclase activators” (Boehringer Ingelheim International GmbH, priority 2011, dated 2013):
pEC50: −log10 of the molar value. In brackets after ≈: the same amount, converted by molar mass.

Columns and labels:
[1] = Assessment of solubility (HT solubility, pION, UV); format: physicochemical; conditions: incubated 16-19 hours, 1.0% DMSO, 100 uM; for solubility kinetic: pH 4.5 buffer (pION system solution), pH 4.5, aqueous buffer, kinetic from dmso stock, pH 4.5 buffer, read-out: Sol pH 4.5; for Sol pH 7.4: pH 7.4 buffer
In short: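 Compounds were taken from 10 mM DMSO stocks into pH 4.5 or pH 7.4 buffer at 100 uM final (1.0% DMSO), run in duplicate, and incubated sealed for 16-19 h. Filtrates were diluted with N-propanol and read by UV at 250-498 nm against blank and reference spectra, […].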

[2] = target: T1, Recombinant human soluble guanylate cyclase (sGC) (Homo sapiens, UniProt Q02153); experiment: Molecular assay: activation of heme-free sGC, cGMP detection (CisBio kit); format: biochemical; conditions: 300 pM heme-free sGC, 37° C., 60 minutes, cGMP formation
T1 construct: histidine tag (C); made in house; host or cells: Sf9 insect cells (baculovirus coinfection)
T1 sequence (Q02108 whole entry partner): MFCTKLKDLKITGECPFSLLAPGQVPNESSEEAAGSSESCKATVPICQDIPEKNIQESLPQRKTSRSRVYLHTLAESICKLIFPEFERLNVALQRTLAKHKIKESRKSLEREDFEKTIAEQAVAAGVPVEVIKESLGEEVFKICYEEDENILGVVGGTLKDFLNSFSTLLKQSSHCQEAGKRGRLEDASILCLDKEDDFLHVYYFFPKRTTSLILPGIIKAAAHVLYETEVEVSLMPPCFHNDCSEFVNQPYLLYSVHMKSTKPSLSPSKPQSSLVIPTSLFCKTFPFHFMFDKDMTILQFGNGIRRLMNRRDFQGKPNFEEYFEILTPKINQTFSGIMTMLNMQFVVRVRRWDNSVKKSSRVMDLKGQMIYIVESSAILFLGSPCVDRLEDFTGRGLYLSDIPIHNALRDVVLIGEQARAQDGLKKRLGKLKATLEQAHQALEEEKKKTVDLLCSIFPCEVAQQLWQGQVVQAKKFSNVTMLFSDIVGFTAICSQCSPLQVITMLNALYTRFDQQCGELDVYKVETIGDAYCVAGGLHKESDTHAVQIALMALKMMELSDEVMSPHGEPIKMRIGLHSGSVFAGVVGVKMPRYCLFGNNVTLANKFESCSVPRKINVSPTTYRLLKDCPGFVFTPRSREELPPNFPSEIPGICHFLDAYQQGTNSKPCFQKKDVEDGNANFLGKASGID
T1 sequence (Q02153 whole entry): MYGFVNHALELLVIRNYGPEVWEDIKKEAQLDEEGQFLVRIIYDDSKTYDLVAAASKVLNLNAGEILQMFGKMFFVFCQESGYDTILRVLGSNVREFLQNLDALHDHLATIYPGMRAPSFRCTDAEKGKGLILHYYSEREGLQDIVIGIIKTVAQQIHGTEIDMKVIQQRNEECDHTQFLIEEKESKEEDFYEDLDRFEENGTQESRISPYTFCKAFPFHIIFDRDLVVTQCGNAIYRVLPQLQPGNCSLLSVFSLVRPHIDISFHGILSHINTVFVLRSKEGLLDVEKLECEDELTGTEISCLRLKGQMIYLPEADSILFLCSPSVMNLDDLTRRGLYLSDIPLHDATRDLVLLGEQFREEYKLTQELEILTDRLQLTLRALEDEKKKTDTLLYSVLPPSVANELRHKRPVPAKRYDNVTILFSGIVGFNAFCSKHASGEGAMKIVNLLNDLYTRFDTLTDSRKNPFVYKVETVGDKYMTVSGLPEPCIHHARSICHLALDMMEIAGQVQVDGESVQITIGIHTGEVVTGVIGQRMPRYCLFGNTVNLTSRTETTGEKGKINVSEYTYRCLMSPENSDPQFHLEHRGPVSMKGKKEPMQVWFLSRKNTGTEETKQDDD
In short: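 Heme-free human α1/β1 sGC (His-tagged, Sf9-expressed, Tween 20-treated) at 300 pM incubated with compound in pH 6.8 MOPS buffer with 50 nM GTP, IBMX, 1% DMSO, 60 min at 37 °C. cGMP quantified by HTRF against a calibration curve; EC50 from combined undiluted and 80-fold diluted readings.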

solubility kinetic [1] [µg/mL] | Sol pH 7.4 [1] [μg/mL] | pEC50 [2] | Compound
> 70 | >70 | 7.16 | Cc1cccc(-c2cccc(-c3c(C)c(C(=O)O)nn3C(C)(C)C)n2)c1OCc1ccc2c(c1)CCN(C1CCOCC1)C2 [Compound 84]
> 60 | >60 | 7.03 | Cc1cccc(-c2cccc(-c3c(C)c(C(=O)O)nn3CCC(=O)O)n2)c1OCc1ccc2c(c1)CCN(C1CCOCC1)C2 [Compound 85]
> 65 | >65 | 6.11 | Cc1cccc(-c2cccc(-c3onc(C(=O)O)c3C)n2)c1OCc1ccc2c(c1)CCN(C1CCOCC1)C2 [Compound 86, 4-methyl-5-[6-[3-methyl-2-[(2-tetrahydropyran-4-yl-3,4-dihydro-1H-isoquinolin-6-yl)methoxy]phenyl]-2-pyridyl]isoxazole-3-carboxylic acid]
17.3 (≈ 27.9 µM) | 14.1 | 6.74 | Cc1cccc(-c2cccc(-c3c(C)c(C(=O)O)nn3CC(F)(F)F)n2)c1OCc1ccc2c(c1)CCN(C1CCOCC1)C2 [Compound 87]
51.5 (≈ 82.7 µM) | >62 | 6.15 | Cc1cccc(-c2cccc(-c3c(C)c(C(=O)O)nn3C3CCOCC3)n2)c1OCc1ccc2c(c1)CCN(C1CCOCC1)C2 [Compound 89]
49 (≈ 80 µM) | 50.2 | 7.82 | Cc1cccc(-c2cccc(-c3c(C)c(C(=O)O)nn3C3CC3)n2)c1OCc1ccc2c(c1)CCN(C1CCC(F)(F)CC1)C2 [Compound 90]
> 69 | >69 | 6.80 | Cc1cccc(-c2cccc(-c3c(C)c(C(=O)O)nn3C3CC3)n2)c1OCc1ccc2c(c1)CCN(C1CCOCC1)C2 [Compound 91]
